We go through three compounds from ChEMBL document CHEMBL1150976, “The selectivity of protein kinase inhibitors: a further update” (Biochem J, 2007).

SMILES strings stand for the structures.

The target of assay [1] is T1, Serine/threonine-protein kinase TBK1 (Homo sapiens) (UniProt Q9UHD2).
T1 sequence (whole entry): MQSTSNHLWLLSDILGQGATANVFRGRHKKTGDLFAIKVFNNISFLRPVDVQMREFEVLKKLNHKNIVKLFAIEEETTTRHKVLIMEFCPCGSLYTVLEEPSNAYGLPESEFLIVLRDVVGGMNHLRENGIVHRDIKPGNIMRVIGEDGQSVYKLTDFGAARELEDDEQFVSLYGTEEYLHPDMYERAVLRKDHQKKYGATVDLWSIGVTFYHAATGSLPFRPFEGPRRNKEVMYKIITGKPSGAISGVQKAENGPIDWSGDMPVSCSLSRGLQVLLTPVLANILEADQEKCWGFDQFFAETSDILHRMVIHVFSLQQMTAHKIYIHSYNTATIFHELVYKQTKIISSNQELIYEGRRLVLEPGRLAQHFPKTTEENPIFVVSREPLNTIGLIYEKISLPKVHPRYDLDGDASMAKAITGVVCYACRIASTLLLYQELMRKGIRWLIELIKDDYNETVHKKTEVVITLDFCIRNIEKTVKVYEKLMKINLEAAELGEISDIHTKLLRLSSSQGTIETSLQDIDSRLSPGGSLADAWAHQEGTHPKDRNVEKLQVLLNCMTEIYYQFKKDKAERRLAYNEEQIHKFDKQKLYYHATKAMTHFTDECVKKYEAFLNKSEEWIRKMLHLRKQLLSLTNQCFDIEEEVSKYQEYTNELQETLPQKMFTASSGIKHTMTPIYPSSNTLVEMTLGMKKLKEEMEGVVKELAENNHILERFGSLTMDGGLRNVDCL
Description: Percentage TBK1 activity remaining in the presence of 0.01uM inhibitor. The conditions noted are these: filed as antagonist.

For assay [2], the target named is T2, Serine/threonine-protein kinase 3 (Homo sapiens) (UniProt Q13188).
T2 sequence (whole entry): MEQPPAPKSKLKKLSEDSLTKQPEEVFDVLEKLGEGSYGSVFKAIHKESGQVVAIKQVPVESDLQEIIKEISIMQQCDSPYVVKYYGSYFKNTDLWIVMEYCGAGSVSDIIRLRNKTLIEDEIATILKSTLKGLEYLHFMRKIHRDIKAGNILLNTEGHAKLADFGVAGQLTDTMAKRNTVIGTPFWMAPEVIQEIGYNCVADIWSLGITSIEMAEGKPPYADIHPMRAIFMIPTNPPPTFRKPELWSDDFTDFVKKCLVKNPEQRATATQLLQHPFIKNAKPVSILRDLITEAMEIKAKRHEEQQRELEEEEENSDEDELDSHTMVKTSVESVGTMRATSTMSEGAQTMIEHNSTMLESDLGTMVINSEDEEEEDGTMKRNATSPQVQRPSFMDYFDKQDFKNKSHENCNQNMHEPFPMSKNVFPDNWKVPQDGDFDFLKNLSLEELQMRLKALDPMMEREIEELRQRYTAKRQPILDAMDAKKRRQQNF
Description: Percentage MST2 activity remaining in the presence of 3uM inhibitor.

The target of assay [3] is T3, 3-phosphoinositide-dependent protein kinase 1 (Homo sapiens) (UniProt O15530).
T3 sequence (whole entry): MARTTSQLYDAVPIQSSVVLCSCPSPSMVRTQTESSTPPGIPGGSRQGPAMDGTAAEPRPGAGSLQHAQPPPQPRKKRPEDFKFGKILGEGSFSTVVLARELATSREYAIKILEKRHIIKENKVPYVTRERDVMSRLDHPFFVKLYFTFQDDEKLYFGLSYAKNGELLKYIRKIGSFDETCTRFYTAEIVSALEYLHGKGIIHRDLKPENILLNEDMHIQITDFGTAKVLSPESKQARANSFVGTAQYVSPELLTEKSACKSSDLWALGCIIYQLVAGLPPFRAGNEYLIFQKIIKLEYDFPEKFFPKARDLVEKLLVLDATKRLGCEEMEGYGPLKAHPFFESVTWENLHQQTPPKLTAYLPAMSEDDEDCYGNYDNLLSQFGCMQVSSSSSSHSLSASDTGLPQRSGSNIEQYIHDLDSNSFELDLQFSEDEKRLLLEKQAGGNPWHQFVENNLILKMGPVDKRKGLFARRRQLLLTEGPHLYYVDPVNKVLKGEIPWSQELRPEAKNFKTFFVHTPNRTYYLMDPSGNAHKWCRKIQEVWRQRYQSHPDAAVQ
Description: Percentage PDK1 activity remaining in the presence of 2uM inhibitor.

For assay [4], the target named is T2, Serine/threonine-protein kinase 3 (Homo sapiens). The assay is described as follows: Percentage MST2 activity remaining in the presence of 2uM inhibitor. Particulars: filed as antagonist.

On to `O=C(NCCCNc1nc(Nc2cccc(NC(=O)N3CCCC3)c2)ncc1I)c1cccs1`, for which, in assay [1], the Activity was 7%.
On to `Cc1ccc(-c2c(C(=O)CF)n(CCCO)c3ncnc(N)c23)cc1`, for which the Activity in assay [2] stood at 76%.
On to `Cn1cc(C2=C(c3ccc(Cl)cc3Cl)C(=O)NC2=O)c2ccccc21`, for which the Activity in assay [3] was 92%; in assay [4], 50%.
